Experimental data reported in BindingDB's records for doi:10.1016/j.bmc.2017.12.033 (University of Messina, 2018).

How the values were obtained:
[1] = Inhibition of reverse transcriptase Y181C mutant in HIV1 infected in human MT4 cells assessed as protection against virus induced cytotoxicity after 5 days by MTT assay
[2] = Inhibition of reverse transcriptase E138K mutant in HIV1 infected in human MT4 cells assessed as protection against virus induced cytotoxicity after 5 days by MTT assay
[3] = Inhibition of reverse transcriptase Y188L mutant in HIV1 infected in human MT4 cells assessed as protection against virus induced cytotoxicity after 5 days by MTT assay
[4] = Inhibition of reverse transcriptase K103N mutant in HIV1 infected in human MT4 cells assessed as protection against virus induced cytotoxicity after 5 days by MTT assay
[5] = Inhibition of reverse transcriptase L100I mutant in HIV1 infected in human MT4 cells assessed as protection against virus induced cytotoxicity after 5 days by MTT assay
[6] = Inhibition of reverse transcriptase F227L/V106A double mutant in HIV1 infected in human MT4 cells assessed as protection against virus induced cytotoxicity after 5 days by MTT assay
[7] = Inhibition of reverse transcriptase K103N/Y181C double mutant in HIV1 infected in human MT4 cells assessed as protection against virus induced cytotoxicity after 5 days by MTT assay

Compound	EC50 [1]	EC50 [2]	EC50 [3]	EC50 [4]	EC50 [5]	EC50 [6]	EC50 [7]
Cc1cc(C)cc(S(=O)(=O)n2c(SCC(=O)Nc3ccc(S(C)(=O)=O)cc3)nc3ccccc32)c1	> 10.6 µM	0.15 µM	> 10.6 µM	1.19 µM	0.088 µM	> 0.77 µM	> 10.6 µM
COC(=O)c1ccc(NC(=O)CSc2nc3ccccc3n2S(=O)(=O)c2cc(C)cc(C)c2)cc1	> 8.36 µM	0.16 µM	> 8.36 µM	0.96 µM	0.17 µM	> 8.36 µM	> 8.36 µM
Cc1ccc(NC(=O)CSc2nc3ccccc3n2S(=O)(=O)c2cc(C)cc(C)c2)cc1	> 3.13 µM	0.16 µM	> 3.13 µM	> 3.13 µM	0.24 µM	> 3.13 µM	> 3.13 µM
Cc1cc(C)cc(S(=O)(=O)n2c(OCC(=O)Nc3ccc(S(C)(=O)=O)cc3Cl)nc3ccccc32)c1	0.89 µM	0.67 µM	> 228 µM	> 33.9 µM	0.29 µM	1.82 µM	
Cc1cc(C)cc(S(=O)(=O)n2c(SCC(=O)Nc3ccc(S(N)(=O)=O)cc3)nc3ccccc32)c1	> 27.2 µM	0.06 µM	1.56 µM	0.67 µM	0.073 µM	1.58 µM	> 27.2 µM
Cc1cc(C)cc(S(=O)(=O)n2c(SCC(=O)Nc3ccc(C(=O)O)cc3)nc3ccccc32)c1	23.6 µM	1.35 µM	> 124 µM	11.8 µM	1.82 µM	> 124 µM	> 124 µM
